Data published in ChEMBL document CHEMBL4428049, “Design and synthesis of aminothiazole modulators of the gamma-secretase enzyme” (Bioorg Med Chem Lett, 2016).
Converted amounts (≈) assume the structure as drawn. Blank lines part the entries; values can stand above or below the compound they belong to.

What was measured:
[1] = target: Gamma-secretase; assay: Modulation of gamma-secretase in human SH-SY5Y cells overexpressing wild-type human APP751 assessed as inhibition of Abeta42 level after 24 hrs by ELISA; type: cell-based
[2] = Kinetic solubility in PBS buffer at pH 7.4 by UV/vis absorbance analysis; type: physicochemical; conditions: read-out: Kinetic_solubility
[3] = Lipophilicity, log D of the compound; type: physicochemical; conditions: octanol/water
[4] = Half life in CD1 mouse at 1 mg/kg, iv administered as single dose by HPLC/MS/MS analysis; type: ADME, organism-based; conditions: in vivo
[5] = target: Cytochrome P450 2D6 (Homo sapiens, UniProt P10635); assay: Inhibition of recombinant CYP2D6 (unknown origin) by fluorescence-based assay; type: ADME
[6] = Cmax in CD1 mouse at 5 mg/kg administered via oral gavage by HPLC/MS/MS analysis; type: ADME, organism-based; parameters: dose 5 mg/kg, route oral; conditions: in vivo
[7] = Ratio of drug level in brain to plasma in CD1 mouse at 5 mg/kg administered via oral gavage measured after 4 hrs by HPLC/MS/MS analysis; type: ADME, organism-based; conditions: read-out: BPR
[8] = target: Voltage-gated inwardly rectifying potassium channel KCNH2 (Homo sapiens, UniProt Q12809); assay: Inhibition of human ERG channel expressed in HEK293 cells by patch-clamp assay; type: cell-based
[9] = Stability in rat liver microsomes assessed as compound remaining at 1 uM incubated for 30 mins; type: ADME, Microsome; conditions: read-out: Stability
[10] = target: Cytochrome P450 2C19 (Homo sapiens, UniProt P33261); assay: Inhibition of recombinant CYP2C19 (unknown origin) by fluorescence-based assay; type: ADME
[11] = Stability in mouse liver microsomes assessed as compound remaining at 1 uM incubated for 30 mins; type: ADME, Microsome; conditions: read-out: Stability
[12] = Tmax in CD1 mouse at 5 mg/kg administered via oral gavage by HPLC/MS/MS analysis; type: ADME, organism-based; conditions: in vivo
[13] = Cmax in CD1 mouse at 1 mg/kg, iv administered as single dose by HPLC/MS/MS analysis; type: ADME, organism-based; parameters: dose 1 mg/kg, route intravenous; conditions: in vivo
[14] = Half life in CD1 mouse at 5 mg/kg administered via oral gavage by HPLC/MS/MS analysis; type: ADME, organism-based; conditions: in vivo
[15] = Ratio of drug level in brain to plasma in CD1 mouse at 5 mg/kg administered via oral gavage measured after 8 hrs by HPLC/MS/MS analysis; type: ADME, organism-based; conditions: read-out: BPR
[16] = AUC (infinity) in CD1 mouse at 1 mg/kg, iv administered as single dose by HPLC/MS/MS analysis; type: ADME, organism-based; parameters: dose 1 mg/kg, route intravenous, time infinity; conditions: in vivo
[17] = AUC (last) in CD1 mouse at 1 mg/kg, iv administered as single dose by HPLC/MS/MS analysis; type: ADME, organism-based; parameters: dose 1 mg/kg, time 0 - last, route intravenous; conditions: in vivo
[18] = Efflux ratio of permeability from basolateral to apical over apical to basolateral side of MDCK cells expressing MDR1; type: ADME, cell-based, Canis lupus familiaris; conditions: dog
[19] = target: Cytochrome P450 3A4 (Homo sapiens, UniProt P08684); assay: Inhibition of recombinant CYP3A4 (unknown origin) by fluorescence-based assay; type: ADME
[20] = AUC (last) in CD1 mouse at 5 mg/kg administered via oral gavage by HPLC/MS/MS analysis; type: ADME, organism-based; parameters: dose 5 mg/kg, time 0 - last, route oral; conditions: in vivo
[21] = Stability in human liver microsomes assessed as compound remaining at 1 uM incubated for 30 mins; type: ADME, Microsome; conditions: read-out: Stability
[22] = AUC (infinity) in CD1 mouse at 5 mg/kg administered via oral gavage by HPLC/MS/MS analysis; type: ADME, organism-based; parameters: dose 5 mg/kg, time infinity, route oral; conditions: in vivo
[23] = target: T1, Cytochrome P450 1A2 (Homo sapiens, UniProt P05177); assay: Inhibition of recombinant CYP1A2 (unknown origin) by fluorescence-based assay; type: ADME
T1 sequence (P05177 whole entry): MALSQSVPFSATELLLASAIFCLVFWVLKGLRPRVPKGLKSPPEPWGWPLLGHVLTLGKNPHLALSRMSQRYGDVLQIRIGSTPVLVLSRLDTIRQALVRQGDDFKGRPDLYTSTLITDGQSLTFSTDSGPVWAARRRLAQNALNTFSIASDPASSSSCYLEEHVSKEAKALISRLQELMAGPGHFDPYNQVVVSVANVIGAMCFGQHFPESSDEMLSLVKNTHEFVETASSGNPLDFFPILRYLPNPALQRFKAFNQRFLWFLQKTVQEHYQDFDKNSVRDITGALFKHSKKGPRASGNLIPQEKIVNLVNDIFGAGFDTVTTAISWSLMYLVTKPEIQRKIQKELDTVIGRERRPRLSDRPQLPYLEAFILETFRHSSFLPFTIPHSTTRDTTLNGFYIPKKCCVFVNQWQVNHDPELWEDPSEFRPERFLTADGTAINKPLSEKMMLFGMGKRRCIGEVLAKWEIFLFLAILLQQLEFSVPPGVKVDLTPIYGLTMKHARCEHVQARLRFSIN

[24] = Apparent permeability in MDCK cells expressing MDR1; type: ADME, cell-based, Canis lupus familiaris; conditions: dog
[25] = Volume of distribution at steady state in CD1 mouse at 1 mg/kg, iv administered as single dose by HPLC/MS/MS analysis; type: ADME, organism-based; conditions: in vivo, read-out: Vdss
[26] = Clearance in CD1 mouse at 1 mg/kg, iv administered as single dose by HPLC/MS/MS analysis; type: ADME, organism-based; conditions: in vivo
[27] = Ratio of drug level in brain to plasma in CD1 mouse at 5 mg/kg administered via oral gavage by HPLC/MS/MS analysis; type: ADME, organism-based; conditions: read-out: BPR
[28] = Clearance in CD1 mouse at 1 mg/kg administered intravenously by HPLC/MS/MS analysis relative to hepatic blood flow; conditions: in vivo, iv
[29] = Protein binding in plasma (unknown origin); type: ADME, cell-free; conditions: read-out: PPB (converted)
[30] = Ratio of drug level in brain to plasma in CD1 mouse at 1 mg/kg, iv administered as single dose measured after 1 hr by HPLC/MS/MS analysis; type: ADME, organism-based; conditions: read-out: BPR
[31] = target: Cytochrome P450 2C9 (Homo sapiens, UniProt P11712); assay: Inhibition of recombinant CYP2C9 (unknown origin) by fluorescence-based assay; type: ADME
[32] = Tmax in CD1 mouse at 1 mg/kg, iv administered as single dose by HPLC/MS/MS analysis; type: ADME, organism-based; conditions: in vivo

Sequence of Cytochrome P450 2C19 (P33261 whole entry): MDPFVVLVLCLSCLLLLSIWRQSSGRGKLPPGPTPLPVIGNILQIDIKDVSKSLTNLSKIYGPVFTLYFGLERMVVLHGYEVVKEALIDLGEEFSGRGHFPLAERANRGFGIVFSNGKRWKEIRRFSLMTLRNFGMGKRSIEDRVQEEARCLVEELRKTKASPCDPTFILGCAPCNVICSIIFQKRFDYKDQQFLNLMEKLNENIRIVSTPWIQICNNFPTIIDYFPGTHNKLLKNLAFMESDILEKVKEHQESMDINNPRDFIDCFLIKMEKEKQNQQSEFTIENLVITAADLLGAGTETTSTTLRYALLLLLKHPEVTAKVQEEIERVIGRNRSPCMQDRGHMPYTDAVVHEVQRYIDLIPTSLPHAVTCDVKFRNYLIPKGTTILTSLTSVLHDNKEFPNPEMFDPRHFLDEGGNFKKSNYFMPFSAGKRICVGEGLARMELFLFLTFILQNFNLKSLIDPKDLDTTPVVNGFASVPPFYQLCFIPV
Sequence of Cytochrome P450 3A4 (P08684 whole entry): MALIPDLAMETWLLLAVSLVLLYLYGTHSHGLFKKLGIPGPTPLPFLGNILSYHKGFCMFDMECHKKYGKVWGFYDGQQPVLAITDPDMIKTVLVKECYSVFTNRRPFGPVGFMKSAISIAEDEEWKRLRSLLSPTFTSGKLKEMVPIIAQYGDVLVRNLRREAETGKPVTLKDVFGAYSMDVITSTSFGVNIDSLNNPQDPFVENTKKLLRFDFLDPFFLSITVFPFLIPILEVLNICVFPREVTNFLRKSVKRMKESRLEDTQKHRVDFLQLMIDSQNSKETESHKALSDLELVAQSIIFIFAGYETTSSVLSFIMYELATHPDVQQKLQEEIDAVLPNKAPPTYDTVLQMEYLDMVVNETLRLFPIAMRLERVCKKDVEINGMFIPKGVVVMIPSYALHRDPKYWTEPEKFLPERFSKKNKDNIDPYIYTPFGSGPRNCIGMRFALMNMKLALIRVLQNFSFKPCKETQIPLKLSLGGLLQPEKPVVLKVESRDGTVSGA
Sequence of Voltage-gated inwardly rectifying potassium channel KCNH2 (Q12809 whole entry): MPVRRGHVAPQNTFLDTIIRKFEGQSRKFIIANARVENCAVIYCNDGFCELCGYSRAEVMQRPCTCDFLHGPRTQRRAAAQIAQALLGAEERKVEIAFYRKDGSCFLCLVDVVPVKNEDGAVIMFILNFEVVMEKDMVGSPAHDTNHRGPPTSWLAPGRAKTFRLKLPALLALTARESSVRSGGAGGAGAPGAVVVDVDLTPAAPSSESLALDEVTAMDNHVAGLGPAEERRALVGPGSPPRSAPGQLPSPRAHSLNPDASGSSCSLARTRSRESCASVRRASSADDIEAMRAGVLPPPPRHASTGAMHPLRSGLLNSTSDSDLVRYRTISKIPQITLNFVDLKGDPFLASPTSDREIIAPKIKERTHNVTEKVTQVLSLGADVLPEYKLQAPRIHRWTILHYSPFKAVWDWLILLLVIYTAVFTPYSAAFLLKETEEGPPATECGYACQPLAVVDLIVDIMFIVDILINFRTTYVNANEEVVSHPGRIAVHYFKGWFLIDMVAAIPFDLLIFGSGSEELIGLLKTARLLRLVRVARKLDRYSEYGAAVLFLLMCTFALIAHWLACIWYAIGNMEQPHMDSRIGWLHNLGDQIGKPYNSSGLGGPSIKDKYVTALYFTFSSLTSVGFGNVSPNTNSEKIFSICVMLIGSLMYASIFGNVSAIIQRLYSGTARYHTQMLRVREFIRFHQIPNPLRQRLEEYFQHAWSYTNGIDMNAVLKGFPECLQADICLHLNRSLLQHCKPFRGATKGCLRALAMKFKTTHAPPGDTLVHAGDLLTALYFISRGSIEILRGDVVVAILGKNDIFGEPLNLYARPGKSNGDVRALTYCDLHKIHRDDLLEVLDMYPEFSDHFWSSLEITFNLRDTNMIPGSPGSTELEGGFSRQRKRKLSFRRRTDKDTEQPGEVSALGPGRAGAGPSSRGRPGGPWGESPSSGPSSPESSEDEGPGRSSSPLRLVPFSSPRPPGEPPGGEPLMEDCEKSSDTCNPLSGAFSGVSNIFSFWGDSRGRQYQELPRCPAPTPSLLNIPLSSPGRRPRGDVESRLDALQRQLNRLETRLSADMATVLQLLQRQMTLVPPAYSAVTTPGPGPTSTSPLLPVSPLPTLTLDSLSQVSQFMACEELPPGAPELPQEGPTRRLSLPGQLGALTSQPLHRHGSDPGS
Sequence of Cytochrome P450 2D6 (P10635 whole entry): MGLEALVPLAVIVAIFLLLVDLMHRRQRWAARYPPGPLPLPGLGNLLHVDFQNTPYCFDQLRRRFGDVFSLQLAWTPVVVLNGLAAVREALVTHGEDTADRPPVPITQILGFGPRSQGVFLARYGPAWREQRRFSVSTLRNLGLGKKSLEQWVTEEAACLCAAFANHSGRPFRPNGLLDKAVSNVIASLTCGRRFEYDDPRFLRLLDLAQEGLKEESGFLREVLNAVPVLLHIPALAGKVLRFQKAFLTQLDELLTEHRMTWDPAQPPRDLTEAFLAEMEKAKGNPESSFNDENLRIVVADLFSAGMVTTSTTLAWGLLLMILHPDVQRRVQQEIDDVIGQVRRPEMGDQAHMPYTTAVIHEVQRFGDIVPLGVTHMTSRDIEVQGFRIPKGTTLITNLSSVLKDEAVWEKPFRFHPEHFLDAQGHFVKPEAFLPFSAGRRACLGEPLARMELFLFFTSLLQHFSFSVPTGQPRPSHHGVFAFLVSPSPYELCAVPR
Sequence of Cytochrome P450 2C9 (P11712 whole entry): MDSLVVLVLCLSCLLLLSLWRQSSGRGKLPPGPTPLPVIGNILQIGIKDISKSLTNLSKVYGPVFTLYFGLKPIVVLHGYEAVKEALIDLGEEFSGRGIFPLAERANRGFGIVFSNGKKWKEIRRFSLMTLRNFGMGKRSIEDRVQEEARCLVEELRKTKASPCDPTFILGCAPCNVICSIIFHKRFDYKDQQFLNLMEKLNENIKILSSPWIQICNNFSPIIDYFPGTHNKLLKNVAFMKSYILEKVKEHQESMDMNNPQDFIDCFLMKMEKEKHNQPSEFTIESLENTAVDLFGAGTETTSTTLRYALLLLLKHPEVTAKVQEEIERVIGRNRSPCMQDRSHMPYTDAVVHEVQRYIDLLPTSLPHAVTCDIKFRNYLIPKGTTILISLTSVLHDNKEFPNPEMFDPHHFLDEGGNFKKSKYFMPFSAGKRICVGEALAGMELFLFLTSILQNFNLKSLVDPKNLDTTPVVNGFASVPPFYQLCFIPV

Compound: Cc1cn(-c2ccc(-c3csc(Nc4c5c(nn4CCF)CCCC5)n3)cc2F)cn1
IC50 [1]: 110 nM

Compound: Cc1cn(-c2ccc(-c3csc(Nc4c5c(nn4C(C)(C)C)CCC5)n3)cc2F)cn1
IC50 [1]: 175 nM

Compound: Cc1cn(-c2ccc(-c3csc(Nc4c5c(nn4C4CCOC4)CCCC5)n3)cc2F)cn1 (stereo not drawn)
IC50 [1]: 289 nM

Compound: CCn1nc2c(c1Nc1nc(-c3ccc(-n4cnc(C)c4)c(F)c3)cs1)CCCC2
IC50 [1]: 163 nM

Compound: CCn1nc2c(c1Nc1nc(-c3ccc(-n4cnc(C)c4)c(F)c3)cs1)CCCCC2
IC50 [1]: 114 nM

Compound: Cc1cn(-c2ccc(-c3csc(Nc4c5c(nn4CCN4CCCCC4)CCCC5)n3)cc2F)cn1
IC50 [1]: 475 nM
solubility kinetic [2]: 8.1 µM (≈ 4.1 µg/mL)

Compound: Cc1cn(-c2ccc(-c3csc(Nc4c5c(nn4C)CCC5)n3)cc2F)cn1
IC50 [1]: > 1000 nM

Compound: Cc1cn(-c2ccc(-c3csc(Nc4c5c(nn4CCCN4CCOCC4)CCCC5)n3)cc2F)cn1
IC50 [1]: 270 nM
solubility kinetic [2]: 16 µM (≈ 8.35 µg/mL)

Compound: Cc1cn(-c2ccc(-c3csc(Nc4c5c(nn4CC(F)(F)F)CCCC5)n3)cc2F)cn1
IC50 [1]: 179 nM

Compound: Cc1cn(-c2ccc(-c3csc(Nc4c5c(nn4C4CCCCC4)CCCC5)n3)cc2F)cn1
IC50 [1]: 280 nM

Compound: Cc1cn(-c2ccc(-c3csc(Nc4c5c(nn4C4CCN(C)CC4)CCCC5)n3)cc2F)cn1
IC50 [1]: > 1000 nM
solubility kinetic [2]: 2.8 µM (≈ 1.38 µg/mL)

Compound: Cc1cn(-c2ccc(-c3csc(Nc4c5c(nn4CCN4CCOCC4)CCCC5)n3)cc2F)cn1
IC50 [1]: > 1000 nM

Compound: Cc1cn(-c2ccc(-c3csc(Nc4cc(C(F)(F)F)nn4CC(F)(F)F)n3)cc2F)cn1
IC50 [1]: 771 nM

Compound: CCCn1nc2c(c1Nc1nc(-c3ccc(-n4cnc(C)c4)c(F)c3)cs1)CCCC2
IC50 [1]: 148 nM

Compound: CCn1nc2c(c1N(C)c1nc(-c3ccc(-n4cnc(C)c4)c(F)c3)cs1)CCCC2
IC50 [1]: > 1000 nM

Compound: Cc1cn(-c2ccc(-c3csc(Nc4c5c(nn4C)CCCC5)n3)cc2F)cn1
IC50 [1]: 208 nM

Compounds with a lower IC50 [1], results first:

IC50 [1]: 66 nM
solubility kinetic [2]: < 1.6 µM
Compound: Cc1cn(-c2ccc(-c3csc(Nc4c5c(nn4C(C)C)CCC5)n3)cc2F)cn1

IC50 [1]: 85 nM
solubility kinetic [2]: 2 µM (≈ 0.905 µg/mL)
Compound: Cc1cn(-c2ccc(-c3csc(Nc4cc(C(C)(C)C)nn4C(C)(C)C)n3)cc2F)cn1

IC50 [1]: 62 nM
solubility kinetic [2]: 2.1 µM (≈ 0.917 µg/mL)
Compound: CCn1nc2c(c1Nc1nc(-c3ccc(-n4cnc(C)c4)c(F)c3)cs1)CCC2(C)C

IC50 [1]: 55 nM
solubility kinetic [2]: < 1.6 µM
Compound: Cc1cn(-c2ccc(-c3csc(Nc4c5c(nn4CC(C)(C)O)CCCC5)n3)cc2F)cn1

logD [3]: 3.64
half-life [4]: 2.4 h
IC50 [5]: > 100000 nM
Cmax [6]: 1000 ng/mL
Kp at 4 h [7]: 0.53
remaining at 0.5 h, 1 µM [9]: 64%
IC50 [10]: 82000 nM
remaining at 0.5 h, 1 µM [11]: 95%
IC50 [1]: 63 nM
Tmax [12]: 1 h
Cmax [13]: 161 ng/mL
half-life [14]: 6 h
Kp at 8 h [15]: 0.59
AUC(0-inf) [16]: 498 ng·h/mL
AUC(0-t) [17]: 335 ng·h/mL
efflux ratio [18]: 1.6
IC50 [19]: 16000 nM
AUC(0-t) [20]: 5390 ng·h/mL
remaining at 0.5 h, 1 µM [21]: 51%
AUC(0-inf) [22]: 5720 ng·h/mL
IC50 [23]: > 100000 nM
solubility kinetic [2]: 4.7 µM (≈ 2 µg/mL)
Papp [24]: 0.97 ×10⁻⁶ cm/s
Vd [25]: 7.15 L/kg
clearance [26]: 33.5 mL/min/kg
Kp [27]: 0.5
CL [28]: 40%
fraction unbound [29]: 0.006
Kp at 1 h [30]: 0.64
IC50 [31]: > 100000 nM
Tmax [32]: 4.98 min
Compound: CCn1nc(C(C)(C)C)cc1Nc1nc(-c2ccc(-n3cnc(C)c3)c(F)c2)cs1
IC50 [8]: > 30000 nM

IC50 [1]: 41 nM
solubility kinetic [2]: < 1.6 µM
Compound: CCn1nc2c(c1Nc1nc(-c3ccc(-n4cnc(C)c4)c(F)c3)cs1)CCC2

IC50 [1]: 49 nM
solubility kinetic [2]: 2.6 µM (≈ 1.17 µg/mL)
Compound: CCn1nc2c(c1Nc1nc(-c3ccc(-n4cnc(C)c4)c(F)c3)cs1)C(C)CC2(C)C (stereo not drawn)
